# Data as given in US20100069407A1, “CXCR2 inhibitors” (priority 2006, published 2010).
# Molecular target: T1, human CXCR2 receptor (Homo sapiens, UniProt P25025)
# T1 construct: purchased Biosignal Packard Inc; host or cells: Chinese hamster ovary cell (CHO-K1) membranes
# T1 sequence (P25025 1-360): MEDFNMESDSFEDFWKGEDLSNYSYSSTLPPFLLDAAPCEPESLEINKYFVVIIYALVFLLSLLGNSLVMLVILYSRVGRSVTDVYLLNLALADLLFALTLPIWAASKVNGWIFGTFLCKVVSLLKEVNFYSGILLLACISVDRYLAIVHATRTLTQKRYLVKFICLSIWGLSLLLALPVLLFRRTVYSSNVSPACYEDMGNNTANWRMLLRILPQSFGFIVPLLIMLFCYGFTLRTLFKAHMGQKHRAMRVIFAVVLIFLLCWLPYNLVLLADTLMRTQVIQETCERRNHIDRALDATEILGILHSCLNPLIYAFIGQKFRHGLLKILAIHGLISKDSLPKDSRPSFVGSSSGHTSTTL
# Assay: [35S]-GTPγS binding assay for human CXCR2 receptor using SPA technology
# Format: biochemical
# Conditions: CHO-K1 membranes expressing human CXCR2; 100 nM IL-8 stimulation
# Description: The assay is performed in duplicate in 96 well Optiplate™ microplate in a final volume of 250 μl per well. Compounds are diluted in DMSO (0.5% final concentration) and incubated in 20 mM HEPES buffer pH 7.4 containing 10 mM MgCl2, 100 mM NaCl, 1 mM EDTA plus 100 nM IL-8, 50 μM GDP and 500 μM [^35S]GTPγS per well. SPA beads (1 mg/well final concentration) were pre-mixed with the membranes (10 μg/well final concentration) in assay buffer: 20 mM HEPES buffer pH 7.4 containing 10 mM MgCl2, 100 mM NaCl, 1 mM EDTA. The bead membrane mixture is added to each well, plates are sealed and incubated at room temperature for 60 minutes. The plate is centrifuged and read on Packard TopCount™ scintillation counter, program [^35S dpm] for 1 min/well. Data are expressed as the % response to 100 nM IL-8 minus basal.
structure (smiles),measurement,value
CCc1nc2nc(CSc3cccc(F)c3F)cc(O)n2n1 [Example 4],IC50,2.4 µM
